Values after ≈ are worked out from the molar mass of the structure shown.
Experiments:
[1] = tested on: HIV-1 (IIIB); assay: microbe, parasite or virus in culture; format: cell-based; details: Human immunodeficiency virus 1, MT4, 120 h; HIV-1 (IIIB) replication in MT-4 cells, 5 days, Cell Titer Glo; read-out: MT4 EC50
[2] = in vitro; details: human, uninfected MT-4 cells
[3] = physchem; details: FaSSIF, 23 °C, thermodynamic from solid

| SMILES | EC50 [1] [µM] | CC50 at 5 days [2] [µM] | solubility thermodynamic at 24 h [3] [µg/mL] |
| --- | --- | --- | --- |
| COC1=NO[C@@]2(CC[C@H](C)N3C[C@H]2n2cc(C(=O)NCc4ccc(F)cc4F)c(=O)c(OCOC(=O)OC(C)(C)COP(=O)(O)O)c2C3=O)C1 [Compound 63, (((3′S,5S,7′R)-10′-((2,4-difluorobenzyl)carbamoyl)-3-methoxy-3′-methyl-1′,11′-dioxo-1′,4′,5′,11′-tetrahydro-3′H,4H,7′H-spiro[isoxazole-5,6′-[2,7]methanopyrido[1,2-a][1,4]diazonin]-12′-yl)oxy)methyl (2-methyl-1-(phosphonooxy)propan-2-yl) carbonate] | 0.00512 | 35.4 | 4620 (≈ 6.35 mM) |
| CC[C@H](COC(=O)OCOc1c2n(cc(C(=O)NCc3ccc(F)cc3F)c1=O)[C@@H]1CN(C2=O)[C@@H](C)CC[C@]12CC(C)=NO2)OP(=O)(O)O [Compound 64, (((3′S,5S,7′R)-10′-((2,4-difluorobenzyl)carbamoyl)-3,3′-dimethyl-1′,11′-dioxo-1′,4′,5′,11′-tetrahydro-3′H,4H,7′H-spiro[isoxazole-5,6′-[2,7]methanopyrido[1,2-a][1,4]diazonin]-12′-yl)oxy)methyl ((R)-2-(phosphonooxy)butyl) carbonate] | 0.00124 | 13.6 | 4840 (≈ 6.8 mM) |
| CC1=NO[C@@]2(CC[C@H](C)N3C[C@H]2n2cc(C(=O)NCc4ccc(F)cc4F)c(=O)c(OCOC(=O)O[C@@H](C)[C@H](C)OP(=O)(O)O)c2C3=O)C1 [Compound 28, (((3′S,5S,7′R)-10′-((2,4-difluorobenzyl)carbamoyl)-3,3′-dimethyl-1′,11′-dioxo-1′,4′,5′,11′-tetrahydro-3′H,4H,7′H-spiro[isoxazole-5,6′-[2,7]methanopyrido[1,2-a][1,4]diazonin]-12′-yl)oxy)methyl ((2S,3S)-3-(phosphonooxy)butan-2-yl) carbonate] | 0.00485 | 28.9 | 4400 (≈ 6.18 mM) |
| COC1=NO[C@@]2(CC[C@H](C)N3C[C@H]2n2cc(C(=O)NCc4ccc(F)cc4F)c(=O)c(OCOC(=O)O[C@H](C)[C@H](C)OP(=O)(O)O)c2C3=O)C1 [Compound 60, (((3′S,5S,7′R)-10′-((2,4-difluorobenzyl)carbamoyl)-3-methoxy-3′-methyl-1′,11′-dioxo-1′,4′,5′,11′-tetrahydro-3′H,4H,7′H-spiro[isoxazole-5,6′-[2,7]methanopyrido[1,2-a][1,4]diazonin]-12′-yl)oxy)methyl ((2R,3S)-3-(phosphonooxy)butan-2-yl) carbonate] | 0.0019 | 23.8 | 4520 (≈ 6.2 mM) |
| CC1=NO[C@@]2(CC[C@H](C)N3C[C@H]2n2cc(C(=O)NCc4ccc(F)cc4F)c(=O)c(OCOC(=O)CC(C)(C)COP(=O)(O)O)c2C3=O)C1 [Compound 41, (((3′S,5S,7′R)-10′-((2,4-difluorobenzyl)carbamoyl)-3,3′-dimethyl-1′,11′-dioxo-1′,4′,5′,11′-tetrahydro-3′H,4H,7′H-spiro[isoxazole-5,6′-[2,7]methanopyrido[1,2-a][1,4]diazonin]-12′-yl)oxy)methyl 3,3-dimethyl-4-(phosphonooxy)butanoate] | 0.00309 | 44.3 | 5600 (≈ 7.87 mM) |
| CC1=NO[C@@]2(CC[C@H](C)N3C[C@H]2n2cc(C(=O)NCc4ccc(F)cc4F)c(=O)c(OCOC(=O)O[C@H](C)[C@H](C)OP(=O)(O)O)c2C3=O)C1 [Compound 58, (((3′S,5S,7′R)-10′-((2,4-difluorobenzyl)carbamoyl)-3,3′-dimethyl-1′,11′-dioxo-1′,4′,5′,11′-tetrahydro-3′H,4H,7′H-spiro[isoxazole-5,6′-[2,7]methanopyrido[1,2-a][1,4]diazonin]-12′-yl)oxy)methyl ((2R,3S)-3-(phosphonooxy)butan-2-yl) carbonate] | 0.00211 | 24.2 | 4860 (≈ 6.82 mM) |
| CC1=NO[C@@]2(CC[C@H](C)N3C[C@H]2n2cc(C(=O)NCc4ccc(F)cc4F)c(=O)c(OCOC(=O)N(C)CCN(CC(=O)O)C(=O)OCOP(=O)(O)O)c2C3=O)C1 [Compound 21, N-(2-((((((3′S,5S,7′R)-10′-((2,4-difluorobenzyl)carbamoyl)-3,3′-dimethyl-1′,11′-dioxo-1′,4′,5′,11′-tetrahydro-3′H,4H,7′H-spiro[isoxazole-5,6′-[2,7]methanopyrido[1,2-a][1,4]diazonin]-12′-yl)oxy)methoxy)carbonyl)(methyl)amino)ethyl)-N-(((phosphonooxy)methoxy)carbonyl)glycine] | 0.0015 | 15.2 | 5040 (≈ 6.08 mM) |
| CC1=NO[C@@]2(CC[C@H](C)N3C[C@H]2n2cc(C(=O)NCc4ccc(F)cc4F)c(=O)c(OCOC(=O)OCC(C)(C)CN(CC(=O)O)C(=O)OCOP(=O)(O)O)c2C3=O)C1 [Compound 37, N-(3-((((((3′S,5S,7′R)-10′-((2,4-difluorobenzyl)carbamoyl)-3,3′-dimethyl-1′,11′-dioxo-1′,4′,5′,11′-tetrahydro-3′H,4H,7′H-spiro[isoxazole-5,6′-[2,7]methanopyrido[1,2-a][1,4]diazonin]-12′-yl)oxy)methoxy)carbonyl)oxy)-2,2-dimethylpropyl)-N-(((phosphonooxy)methoxy)carbonyl)glycine] | 0.00149 | 11.1 | 4980 (≈ 5.81 mM) |
| COC1=NO[C@@]2(CC[C@H](C)N3C[C@H]2n2cc(C(=O)NCc4ccc(F)cc4F)c(=O)c(OCOC(=O)O[C@@H](C)[C@@H](C)OP(=O)(O)O)c2C3=O)C1 [Compound 59, (((3′S,5S,7′R)-10′-((2,4-difluorobenzyl)carbamoyl)-3-methoxy-3′-methyl-1′,11′-dioxo-1′,4′,5′,11′-tetrahydro-3′H,4H,7′H-spiro[isoxazole-5,6′-[2,7]methanopyrido[1,2-a][1,4]diazonin]-12′-yl)oxy)methyl ((2S,3R)-3-(phosphonooxy)butan-2-yl) carbonate] | 0.00204 | 18.8 | 5240 (≈ 7.19 mM) |
| CC1=NO[C@@]2(CC[C@H](C)N3C[C@H]2n2cc(C(=O)NCc4ccc(F)cc4F)c(=O)c(OCOC(=O)O[C@@H](C)[C@@H](C)OP(=O)(O)O)c2C3=O)C1 [Compound 57, (((3′S,5S,7′R)-10′-((2,4-difluorobenzyl)carbamoyl)-3,3′-dimethyl-1′,11′-dioxo-1′,4′,5′,11′-tetrahydro-3′H,4H,7′H-spiro[isoxazole-5,6′-[2,7]methanopyrido[1,2-a][1,4]diazonin]-12′-yl)oxy)methyl ((2S,3R)-3-(phosphonooxy)butan-2-yl) carbonate] | 0.00232 | 19.9 | 4630 (≈ 6.5 mM) |
| CC1=NO[C@@]2(CC[C@H](C)N3C[C@H]2n2cc(C(=O)NCc4ccc(F)cc4F)c(=O)c(OCOC(=O)C(C)(C)CCN(CC(=O)O)C(=O)OCOP(=O)(O)O)c2C3=O)C1 [Compound 43, N-(4-((((3′S,5S,7′R)-10′-((2,4-difluorobenzyl)carbamoyl)-3,3′-dimethyl-1′,11′-dioxo-1′,4′,5′,11′-tetrahydro-3′H,4H,7′H-spiro[isoxazole-5,6′-[2,7]methanopyrido[1,2-a][1,4]diazonin]-12′-yl)oxy)methoxy)-3,3-dimethyl-4-oxobutyl)-N-(((phosphonooxy)methoxy)carbonyl)glycine] | 0.00177 | 8.46 | 5420 (≈ 6.43 mM) |
| CC1=NO[C@@]2(CC[C@H](C)N3C[C@H]2n2cc(C(=O)NCc4ccc(F)cc4F)c(=O)c(OCOC(=O)CCCOP(=O)(O)O)c2C3=O)C1 [Compound 40, (((3′S,5S,7′R)-10′-((2,4-difluorobenzyl)carbamoyl)-3,3′-dimethyl-1′,11′-dioxo-1′,4′,5′,11′-tetrahydro-3′H,4H,7′H-spiro[isoxazole-5,6′-[2,7]methanopyrido[1,2-a][1,4]diazonin]-12′-yl)oxy)methyl 4-(phosphonooxy)butanoate] | 0.00126 | 12.6 | 5340 (≈ 7.83 mM) |
| CC[C@@H](COP(=O)(O)O)OC(=O)OCOc1c2n(cc(C(=O)NCc3ccc(F)cc3F)c1=O)[C@@H]1CN(C2=O)[C@@H](C)CC[C@]12CC(C)=NO2 [Compound 26, (((3′S,5S,7′R)-10′-((2,4-difluorobenzyl)carbamoyl)-3,3′-dimethyl-1′,11′-dioxo-1′,4′,5′,11′-tetrahydro-3′H,4H,7′H-spiro[isoxazole-5,6′-[2,7]methanopyrido[1,2-a][1,4]diazonin]-12′-yl)oxy)methyl ((S)-1-(phosphonooxy)butan-2-yl) carbonate] | 0.00271 | 13.5 | 4760 (≈ 6.69 mM) |
| CC1=NO[C@@]2(CC[C@H](C)N3C[C@H]2n2cc(C(=O)NCc4ccc(F)cc4F)c(=O)c(OCOC(=O)OCCOP(=O)(O)O)c2C3=O)C1 [Compound 4, (((3′S,5S,7′R)-10′-((2,4-difluorobenzyl)carbamoyl)-3,3′-dimethyl-1′,11′-dioxo-1′,4′,5′,11′-tetrahydro-3′H,4H,7′H-spiro[isoxazole-5,6′-[2,7]methanopyrido[1,2-a][1,4]diazonin]-12′-yl)oxy)methyl (2-(phosphonooxy)ethyl) carbonate] | 0.00095 | 11.6 | 4300 (≈ 6.28 mM) |
| CC1=NO[C@@]2(CC[C@H](C)N3C[C@H]2n2cc(C(=O)NCc4ccc(F)cc4F)c(=O)c(OCOC(=O)O[C@@H](C)COP(=O)(O)O)c2C3=O)C1 [Compound 19, (((3′S,5S,7′R)-10′-((2,4-difluorobenzyl)carbamoyl)-3,3′-dimethyl-1′,11′-dioxo-1′,4′,5′,11′-tetrahydro-3′H,4H,7′H-spiro[isoxazole-5,6′-[2,7]methanopyrido[1,2-a][1,4]diazonin]-12′-yl)oxy)methyl ((S)-1-(phosphonooxy)propan-2-yl) carbonate] | 0.00235 | 12.2 | 5060 (≈ 7.24 mM) |
